This passage reports IC50 and inhibition results from US20240254082A1, “Substituted Isoindoline-1, 3-diketone PDE4 Inhibitor and Pharmaceutical Application Thereof” (SUZHOU INTRAGRAND PHARMA CO., LTD, priority 2021, published 2024).

Assay type in all cases: biochemical
The target of one test is PDE4D3 (Homo sapiens, UniProt Q08499). As to the kind of experiment: Inhibition assay of PDE4D3 enzyme (TR-FRET kit). The procedure:
2. Inhibition assay of PDE4D3 enzyme:
Materials and Instruments:
FAM substrate: A stock solution of 20 μM FAM substrate was diluted to 200 nM with PDE assay buffer. 12.5 μL of the diluted substrate was added to each reaction well.
5 μL of the compound stock solution was added to 45 μL of DMSO to prepare a 1 mM diluent. 5 μL of the 1 mM diluent was added to 45 μL of PDE assay buffer to prepare a gradient dilution starting point. Then, according to the method of adding 5 μL of the previous concentration solution to 15 μL of PDE assay buffer, gradient dilution was carried out for 9 times to prepare compound working solutions with 10 concentrations. The working solutions were added to compound wells at 2.5 μL/well.
PDE4D3: 0.054 μL of a PDE4D3 recombinase stock solution was added to 1500 μL of PDE buffer, and the mixture was added to all compound wells and positive control wells at 10 μL/well. 10 μL of PDE assay buffer was added to substrate control wells.
Binding solution: 3750 μL of binding buffer A and 3750 μL of binding buffer B were mixed well. Then, 150 μL of a binder was added into the mixture and mixed well. 7.5 μL of a Tb donor was added and mixed well. The obtained mixture was added to all wells at 50 μL/well.
S520=Read value of sample 520 nm
S490=Read value of sample 490 nm
Tb520=Read value of Tb only 520 nm
Tb490=Read value of Tb only 490 nm
FRETp=Positive control FRET
FRETsub=Substrate control FRET.
For orientation: TR-FRET usually uses a lanthanide donor and a delayed reading to cut background.

The target of another test is PDE10A1 (Homo sapiens, UniProt Q9Y233). In words: Selective inhibitory activity assay, PDE10A1. To be noted: read-out: Inhibition rate (%) of PDE10A1. The method, then: (§1) 7. Selective inhibitory activity assay for PDE1, 2, 3, 5, 7, 10 and 11 enzymes
Sequence of PDE10A1 (Q9Y233 1-779 isoform Q9Y233-1, species assumed): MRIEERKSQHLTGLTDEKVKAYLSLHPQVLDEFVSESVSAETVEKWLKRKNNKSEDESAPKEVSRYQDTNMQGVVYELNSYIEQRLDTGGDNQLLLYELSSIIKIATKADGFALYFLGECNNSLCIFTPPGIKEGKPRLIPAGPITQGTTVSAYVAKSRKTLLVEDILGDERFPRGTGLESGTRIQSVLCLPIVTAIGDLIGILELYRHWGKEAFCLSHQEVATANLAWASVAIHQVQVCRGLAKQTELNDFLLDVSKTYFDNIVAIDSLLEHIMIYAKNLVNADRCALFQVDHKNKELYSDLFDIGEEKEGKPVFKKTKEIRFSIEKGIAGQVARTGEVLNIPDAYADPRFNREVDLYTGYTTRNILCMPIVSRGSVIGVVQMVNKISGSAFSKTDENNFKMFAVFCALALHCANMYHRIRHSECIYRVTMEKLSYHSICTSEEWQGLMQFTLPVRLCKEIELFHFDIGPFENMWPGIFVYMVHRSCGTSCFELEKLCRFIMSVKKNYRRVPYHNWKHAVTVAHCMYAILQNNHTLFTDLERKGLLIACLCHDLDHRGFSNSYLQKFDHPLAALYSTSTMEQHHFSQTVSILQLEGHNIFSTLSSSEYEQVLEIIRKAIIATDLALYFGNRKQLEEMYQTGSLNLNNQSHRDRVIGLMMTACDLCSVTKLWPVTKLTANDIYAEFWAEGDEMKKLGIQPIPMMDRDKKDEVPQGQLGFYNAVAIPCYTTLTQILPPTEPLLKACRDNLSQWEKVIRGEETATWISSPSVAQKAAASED
(§2) The selective specificity of compounds for PDE4 was assessed by assaying single concentrations of the compounds. For example, PDE1a enzyme, PDElc enzyme, PDE2a enzyme, PDE3a enzyme, PDE3b enzyme, PDE5a1 enzyme, PDE7a enzyme, PDE7b enzyme, PDE10a1 enzyme and PDE11a4 enzyme were tested. The selective inhibitory effects of different compounds on the enzymatic activities of PDEIC, PDE2A, PDE3B, PDE5A1, PDE7A, and PDE10A1 at concentrations of 10 μM and 1 μM, respectively, are shown in the table below: […]

The next test concerns the target PDE7A (Homo sapiens, UniProt Q13946). As to the kind of experiment: Selective inhibitory activity assay, PDE7A. Conditions: read-out: Inhibition rate (%) of PDE7A. The procedure: as §1, §2
Another test has as its target PDE1C (Homo sapiens, UniProt Q14123). As to the kind of experiment: Selective inhibitory activity assay, PDE1C. To be noted: read-out: Inhibition rate (%) of PDE1C. The method, then: as §1, §2
The next test has as its target PDE2A (Homo sapiens, UniProt O00408). In words: Selective inhibitory activity assay, PDE2A. Conditions: read-out: Inhibition rate (%) of PDE2A. The procedure:
as §1, §2

The target of another test is PDE5A1 (Homo sapiens, UniProt O76074). As to the kind of experiment: Selective inhibitory activity assay, PDE5A1. Conditions: read-out: Inhibition rate (%) of PDE5A1. The method, then: as §1, §2
Another test deals with PDE3B (Homo sapiens, UniProt Q13370). As to the kind of experiment: Selective inhibitory activity assay, PDE3B. To be noted: read-out: Inhibition rate (%) of PDE3B. The method, then: as §1, §2
Sequence of PDE3B (Q13370 whole entry, species assumed): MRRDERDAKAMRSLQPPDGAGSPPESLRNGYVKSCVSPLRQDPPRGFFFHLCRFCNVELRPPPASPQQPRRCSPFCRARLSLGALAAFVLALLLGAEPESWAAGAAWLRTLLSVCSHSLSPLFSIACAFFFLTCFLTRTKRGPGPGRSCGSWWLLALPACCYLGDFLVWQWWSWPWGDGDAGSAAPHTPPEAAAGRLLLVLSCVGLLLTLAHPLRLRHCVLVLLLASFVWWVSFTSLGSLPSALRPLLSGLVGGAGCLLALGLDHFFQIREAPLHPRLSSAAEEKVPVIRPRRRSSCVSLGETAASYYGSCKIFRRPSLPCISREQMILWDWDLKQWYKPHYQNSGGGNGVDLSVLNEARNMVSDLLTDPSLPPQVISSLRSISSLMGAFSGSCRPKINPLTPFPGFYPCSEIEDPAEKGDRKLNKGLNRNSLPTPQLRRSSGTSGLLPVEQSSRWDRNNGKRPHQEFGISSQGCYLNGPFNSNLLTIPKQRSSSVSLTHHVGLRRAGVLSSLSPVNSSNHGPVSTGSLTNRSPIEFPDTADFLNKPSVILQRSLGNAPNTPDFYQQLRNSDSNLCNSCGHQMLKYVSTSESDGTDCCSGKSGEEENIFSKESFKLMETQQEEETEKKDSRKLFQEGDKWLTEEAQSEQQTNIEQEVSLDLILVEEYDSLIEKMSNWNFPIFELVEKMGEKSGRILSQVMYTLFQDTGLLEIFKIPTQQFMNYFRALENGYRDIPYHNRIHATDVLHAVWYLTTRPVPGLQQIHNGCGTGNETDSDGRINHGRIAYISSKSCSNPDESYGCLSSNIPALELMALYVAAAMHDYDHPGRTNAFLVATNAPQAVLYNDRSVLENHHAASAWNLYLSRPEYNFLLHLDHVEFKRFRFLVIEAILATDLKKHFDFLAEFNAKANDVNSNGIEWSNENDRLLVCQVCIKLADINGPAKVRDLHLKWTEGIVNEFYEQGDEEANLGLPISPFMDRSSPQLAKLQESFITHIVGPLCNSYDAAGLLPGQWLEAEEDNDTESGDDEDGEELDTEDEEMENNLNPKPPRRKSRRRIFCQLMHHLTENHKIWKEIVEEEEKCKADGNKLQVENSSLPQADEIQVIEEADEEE

Structures are written as SMILES.

Sequence of PDE4D3 (Q08499 1-673 isoform Q08499-2): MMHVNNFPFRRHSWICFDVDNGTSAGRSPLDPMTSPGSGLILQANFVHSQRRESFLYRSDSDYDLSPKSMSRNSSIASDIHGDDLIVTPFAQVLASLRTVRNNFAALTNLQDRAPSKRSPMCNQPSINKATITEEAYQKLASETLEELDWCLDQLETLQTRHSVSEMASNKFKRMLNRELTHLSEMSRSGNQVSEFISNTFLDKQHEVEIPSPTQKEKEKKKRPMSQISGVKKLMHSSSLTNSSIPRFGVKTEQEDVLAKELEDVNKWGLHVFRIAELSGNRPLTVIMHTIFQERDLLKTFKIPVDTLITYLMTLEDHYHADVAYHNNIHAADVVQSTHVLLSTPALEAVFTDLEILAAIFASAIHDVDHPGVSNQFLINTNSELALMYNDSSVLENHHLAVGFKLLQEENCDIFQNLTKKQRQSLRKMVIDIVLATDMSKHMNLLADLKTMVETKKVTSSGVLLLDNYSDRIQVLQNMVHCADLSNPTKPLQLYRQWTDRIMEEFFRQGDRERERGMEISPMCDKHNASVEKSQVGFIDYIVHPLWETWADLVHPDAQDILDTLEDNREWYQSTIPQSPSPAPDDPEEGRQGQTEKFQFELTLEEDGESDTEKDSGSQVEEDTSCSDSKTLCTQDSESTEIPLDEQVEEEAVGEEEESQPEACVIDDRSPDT
Sequence of PDE2A (O00408 whole entry, species assumed): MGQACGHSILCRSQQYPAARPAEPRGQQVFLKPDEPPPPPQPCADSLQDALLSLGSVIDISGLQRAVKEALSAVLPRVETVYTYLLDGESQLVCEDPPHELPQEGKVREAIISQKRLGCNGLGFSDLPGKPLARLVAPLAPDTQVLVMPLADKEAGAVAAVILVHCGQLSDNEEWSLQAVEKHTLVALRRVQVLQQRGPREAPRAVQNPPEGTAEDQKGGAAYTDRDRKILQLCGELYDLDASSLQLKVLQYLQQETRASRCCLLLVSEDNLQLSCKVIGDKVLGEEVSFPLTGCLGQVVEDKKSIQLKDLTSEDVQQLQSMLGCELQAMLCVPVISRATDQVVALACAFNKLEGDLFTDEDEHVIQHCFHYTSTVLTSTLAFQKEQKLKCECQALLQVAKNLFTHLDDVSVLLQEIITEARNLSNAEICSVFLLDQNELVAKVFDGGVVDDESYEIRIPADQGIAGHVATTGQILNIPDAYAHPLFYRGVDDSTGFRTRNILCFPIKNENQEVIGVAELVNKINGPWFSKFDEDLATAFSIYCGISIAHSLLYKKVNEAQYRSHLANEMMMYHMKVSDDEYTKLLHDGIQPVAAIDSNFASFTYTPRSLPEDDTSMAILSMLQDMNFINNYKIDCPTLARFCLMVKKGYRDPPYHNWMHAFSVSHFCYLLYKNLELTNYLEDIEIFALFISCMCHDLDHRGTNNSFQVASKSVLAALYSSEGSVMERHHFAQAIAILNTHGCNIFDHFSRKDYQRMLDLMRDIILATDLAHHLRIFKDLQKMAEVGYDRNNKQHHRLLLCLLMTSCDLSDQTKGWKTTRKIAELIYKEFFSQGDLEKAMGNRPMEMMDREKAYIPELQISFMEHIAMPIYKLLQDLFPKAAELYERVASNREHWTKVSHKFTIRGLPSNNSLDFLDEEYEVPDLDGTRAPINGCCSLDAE
Sequence of PDE1C (Q14123 whole entry, species assumed): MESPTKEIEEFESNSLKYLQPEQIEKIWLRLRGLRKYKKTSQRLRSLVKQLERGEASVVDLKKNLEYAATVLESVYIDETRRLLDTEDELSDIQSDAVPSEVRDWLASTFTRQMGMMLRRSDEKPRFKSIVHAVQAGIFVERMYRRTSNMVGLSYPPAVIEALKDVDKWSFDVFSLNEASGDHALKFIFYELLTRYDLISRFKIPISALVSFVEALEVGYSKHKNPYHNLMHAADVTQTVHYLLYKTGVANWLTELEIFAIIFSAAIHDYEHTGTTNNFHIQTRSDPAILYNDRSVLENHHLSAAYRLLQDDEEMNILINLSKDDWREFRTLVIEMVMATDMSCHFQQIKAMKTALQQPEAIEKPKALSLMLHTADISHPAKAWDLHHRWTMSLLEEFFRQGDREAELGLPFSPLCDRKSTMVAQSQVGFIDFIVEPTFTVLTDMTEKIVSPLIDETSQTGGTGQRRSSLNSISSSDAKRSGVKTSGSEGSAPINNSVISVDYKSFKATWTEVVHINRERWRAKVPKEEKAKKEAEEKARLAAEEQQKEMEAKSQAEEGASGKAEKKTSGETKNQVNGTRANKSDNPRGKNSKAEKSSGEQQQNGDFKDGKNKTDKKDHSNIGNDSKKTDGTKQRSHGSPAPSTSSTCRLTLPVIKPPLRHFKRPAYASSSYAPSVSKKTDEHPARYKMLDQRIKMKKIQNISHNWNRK
Sequence of PDE7A (Q13946 whole entry, species assumed): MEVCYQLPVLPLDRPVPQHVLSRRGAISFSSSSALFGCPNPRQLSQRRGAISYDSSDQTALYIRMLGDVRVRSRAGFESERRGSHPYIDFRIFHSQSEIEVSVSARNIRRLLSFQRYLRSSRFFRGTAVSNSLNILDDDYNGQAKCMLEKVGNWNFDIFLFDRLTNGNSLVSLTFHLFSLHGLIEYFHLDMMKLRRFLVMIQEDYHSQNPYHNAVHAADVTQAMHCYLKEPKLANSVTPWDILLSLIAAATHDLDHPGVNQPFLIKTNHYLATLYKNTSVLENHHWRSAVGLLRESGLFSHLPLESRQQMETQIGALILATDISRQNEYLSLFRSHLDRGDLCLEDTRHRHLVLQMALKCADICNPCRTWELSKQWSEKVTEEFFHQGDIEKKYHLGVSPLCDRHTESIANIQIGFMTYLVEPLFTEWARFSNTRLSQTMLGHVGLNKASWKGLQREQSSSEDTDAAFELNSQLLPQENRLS

`CCCCCc1ccc(NC(=O)CCC)c2c1C(=O)N([C@H](CS(C)(=O)=O)c1ccc(OC)c(OCC)c1)C2=O` [Example 10, (S)-2-[1-(3-ethoxy-4-methoxyphenyl)-2-alkylsulfonylethyl]-4-butylamido-7-pentyl isoindoline-1,3-diketone] registered an IC50 against PDE4D3 of 50 to 200 nM. In turn, `CCCCc1ccc(NC(=O)CCl)c2c1C(=O)N([C@H](CS(C)(=O)=O)c1ccc(OC)c(OCC)c1)C2=O` [Example 26, (S)-2-[1-(3-ethoxy-4-methoxyphenyl)-2-alkylsulfonylethyl]-4-chloroacetamido-7-butyl isoindoline-1,3-diketone] registered an IC50 against PDE4D3 of 10 to 50 nM. For `CCCCCCCc1ccc(NC(=O)CCCCl)c2c1C(=O)N([C@H](CS(C)(=O)=O)c1ccc(OC)c(OCC)c1)C2=O` [Example 21, (S)-2-[1-(3-ethoxy-4-methoxyphenyl)-2-alkylsulfonylethyl]-4-(γ-chlorobutyramido)-7-heptyl isoindoline-1,3-diketone], at PDE4D3, the IC50 is more than 200 nM. The same measure, in the same setting: then `CCCCCc1ccc(CNC(C)=O)c2c1C(=O)N([C@H](CS(C)(=O)=O)c1ccc(OC)c(OCC)c1)C2=O` [Example 4, (S)-2-[1-(3-ethoxy-4-methoxyphenyl)-2-alkylsulfonylethyl]-4-acetamidomethyl-7-pentyl isoindoline-1,3-diketone], with 10 to 50 nM. In the case of `CCCCCc1ccc(NC(=O)CCCl)c2c1C(=O)N([C@H](CS(C)(=O)=O)c1ccc(OC)c(OCC)c1)C2=O` [Example 24], the inhibition at 1 µM at PDE10A1 (1 μM) came out at 6.04%; on PDE7A (1 μM) it was 0%; on PDE1C (1 μM) it was 3.89%; on PDE2A (1 μM), 0%; on PDE5A1 (1 μM) it was 0%; at PDE3B (1 μM), 0%. Moreover, the inhibition at 10 µM at PDE10A1 (10 μM) was 11.4%; on PDE7A (10 μM), 4.15%; on PDE1C (10 μM) it was 34.5%; on PDE2A (10 μM), 7.79%; on PDE5A1 (10 μM) it was 11.5%; at PDE3B (10 μM) it was -0.81%. In addition, at PDE4D3, the concentration for half-maximal inhibition (IC50) was 10 to 50 nM. Take `CCCCCCCCCc1ccc(NC(=O)C2CC2)c2c1C(=O)N([C@H](CS(C)(=O)=O)c1ccc(OC)c(OCC)c1)C2=O` [Example 17, (S)-2-[1-(3-ethoxy-4-methoxyphenyl)-2-alkylsulfonylethyl]-4-cyclopropanamido-7-nonyl isoindoline-1,3-diketone]: the IC50 at PDE4D3 was more than 200 nM. On the same count and under the same terms, then `CCCCCCCCc1cc(NC(=O)C2CC2)c2c(c1)C(=O)N([C@H](CS(C)(=O)=O)c1ccc(OC)c(OCC)c1)C2=O` [Example 3, (S)-2-[1-(3-ethoxy-4-methoxyphenyl)-2-alkylsulfonylethyl]-4-cyclopropanamido-5-octyl isoindoline-1,3-diketone], with more than 200 nM. The same measure, in the same setting: then `CCCCCCc1ccc2c(c1NC(=O)CC)C(=O)N([C@H](CS(C)(=O)=O)c1ccc(OC)c(OCC)c1)C2=O` [Example 23, (S)-2-[1-(3-ethoxy-4-methoxyphenyl)-2-alkylsulfonylethyl]-4-propanamido-6-hexyl isoindoline-1,3-diketone], with 50 to 200 nM; and `CCCCCCCCCCCCCc1ccc(NC(C)=O)c2c1C(=O)N([C@H](CS(C)(=O)=O)c1ccc(OC)c(OCC)c1)C2=O` [Example 14, (S)-2-[1-(3-ethoxy-4-methoxyphenyl)-2-alkylsulfonylethyl]-4-acetamido-7-tridecyl isoindoline-1,3-diketone], with more than 200 nM.

For the compound `CCCCCc1ccc(NC(=O)CO)c2c1C(=O)N([C@H](CS(C)(=O)=O)c1ccc(OC)c(OCC)c1)C2=O` [Example 30], the IC50 on PDE4D3 fell in the range of 50 to 200 nM.

Regarding `CCCCCCCCCc1ccc(NC(=O)CC)c2c1C(=O)N([C@H](CS(C)(=O)=O)c1ccc(OC)c(OCC)c1)C2=O` [Example 18, (S)-2-[1-(3-ethoxy-4-methoxyphenyl)-2-alkylsulfonylethyl]-4-propanamido-7-nonyl isoindoline-1,3-diketone], on PDE4D3, the IC50 is 50 to 200 nM. On PDE4D3, `CCCC/C=C/c1ccc2c(c1NC(=O)CCCCl)C(=O)N([C@H](CS(C)(=O)=O)c1ccc(OC)c(OCC)c1)C2=O` [Example 2, (S)-2-[1-(3-ethoxy-4-methoxyphenyl)-2-alkylsulfonylethyl]-4-(γ-chlorobutyramido)-5-hexene (−1) yl isoindoline-1,3-diketone] had an IC50 of 10 to 50 nM. The same measure, in the same setting: then `CCCCCc1ccc(NC(=O)CC(C)C)c2c1C(=O)N([C@H](CS(C)(=O)=O)c1ccc(OC)c(OCC)c1)C2=O` [Example 11], with more than 200 nM; and `CCCCCCCCCCCCCc1ccc(NC(=O)C2CC2)c2c1C(=O)N([C@H](CS(C)(=O)=O)c1ccc(OC)c(OCC)c1)C2=O` [Example 15, (S)-2-[1-(3-ethoxy-4-methoxyphenyl)-2-alkylsulfonylethyl]-4-cyclopropanamido-7-tridecyl isoindoline-1,3-diketone], with more than 200 nM; and `CCCCCc1ccc(NC(=O)C2CC2)c2c1C(=O)N([C@H](CS(C)(=O)=O)c1ccc(OC)c(OCC)c1)C2=O` [Example 6, (S)-2-[1-(3-ethoxy-4-methoxyphenyl)-2-alkylsulfonylethyl]-4-cyclopropanamido-7-pentyl isoindoline-1,3-diketone], with 50 to 200 nM. The same measure, in the same setting: the figure for `CCCCCCCCCc1ccc(NC(=O)CCC)c2c1C(=O)N([C@H](CS(C)(=O)=O)c1ccc(OC)c(OCC)c1)C2=O` [Example 16, (S)-2-[1-(3-ethoxy-4-methoxyphenyl)-2-alkylsulfonylethyl]-4-butylamido-7-nonyl isoindoline-1,3-diketone] is more than 200 nM; for `CCCCCCCCCC(=O)Nc1cccc2c1C(=O)N([C@H](CS(C)(=O)=O)c1ccc(OC)c(OCC)c1)C2=O` [Example 8, (S)-2-[1-(3-ethoxy-4-methoxyphenyl)-2-alkylsulfonylethyl]-4-decanamido-7-pentenyl (−1) isoindoline-1,3-diketone] it is 50 to 200 nM; for `CCCCCCCCCCCCCc1ccc(NC(=O)CC)c2c1C(=O)N([C@H](CS(C)(=O)=O)c1ccc(OC)c(OCC)c1)C2=O` [Example 19, (S)-2-[1-(3-ethoxy-4-methoxyphenyl)-2-alkylsulfonylethyl]-4-propanamido-7-tridecyl isoindoline-1,3-diketone] it is more than 200 nM. The same measure, in the same setting: then `CCCCCCCCc1ccc(NC(=O)CCCCl)c2c1C(=O)N([C@H](CS(C)(=O)=O)c1ccc(OC)c(OCC)c1)C2=O` [Example 22, (S)-2-[1-(3-ethoxy-4-methoxyphenyl)-2-alkylsulfonylethyl]-4-(γ-chlorobutyramido)-7-octyl isoindoline-1,3-diketone], with more than 200 nM; and `CCCCCCc1ccc2c(c1NC(=O)CCCCl)C(=O)N([C@H](CS(C)(=O)=O)c1ccc(OC)c(OCC)c1)C2=O` [Example 1, (S)-2-[1-(3-ethoxy-4-methoxyphenyl)-2-alkylsulfonylethyl]-4-(γ-chlorobutyramido)-5-hexyl isoindoline-1,3-diketone], with 50 to 200 nM; and `CCCCCCc1ccc(NC(=O)CCCCl)c2c1C(=O)N([C@H](CS(C)(=O)=O)c1ccc(OC)c(OCC)c1)C2=O` [Example 20, (S)-2-[1-(3-ethoxy-4-methoxyphenyl)-2-alkylsulfonylethyl]-4-(γ-chlorobutyramido)-7-hexyl isoindoline-1,3-diketone], with 50 to 200 nM. `CCCCCC(=O)Nc1ccc(CCCCC)c2c1C(=O)N([C@H](CS(C)(=O)=O)c1ccc(OC)c(OCC)c1)C2=O` [Example 12]: the IC50 against PDE4D3 was more than 200 nM. The same measure, in the same setting: then `CCCCCc1ccc(NC(=O)COC)c2c1C(=O)N([C@H](CS(C)(=O)=O)c1ccc(OC)c(OCC)c1)C2=O` [Example 31], with 50 to 200 nM.

As a reminder, the IC50 is the concentration needed to halve the response being measured. One may read the inhibition as the relative decrease from the control value, in per cent.
